The subject of experiment [1] is human glioblastoma (U87MG or GBM8401) cells. The experiment in a line: Cell viability in human glioblastoma in vitro (MTT). In kind it is cell-based. The settings on record: U-87 MG, U87MG or GBM8401, 30 uM, read-out: reduction of the cell viability. On the procedure: U87MG human glioblastoma cell line was treated with Compound 7 and analyzed following the procedure described below.
Cell viability was assessed by an MTT assay. Briefly, cells were incubated with 0.25 mg/mL MTT (Sigma) at 37° C. for 1 hour and the MTT fomazan were measured spectrophotometrically (μQuant, Bio-Tek) at 595 nm after dissolution of the crystals in DMSO.

The subject of the next experiment is C6 glioma cell line. Briefly: Cell death in C6 glioma in vitro (LDH assay). The settings on record: rat C6 glioma, 30 uM, after 3 days. The experiment is classed as cell-based. The method, then: Cell death was analyzed by a lactate dehydrogenase (LDH) assay. The culture medium was centrifuged after the experiment and the activity of LDH released into culture media was detected with a LDH cytotoxicity detection kit (Roche). The percentage of cytotoxicity was determined by the equation: [(Experimental group−Control group)/(Triton-100-treated group (100% maximal death)−Control group)]×100%.

In experiment [2] the test system is A549 (non-small-cell lung carcinoma). The experiment in a line: IC50 in human cancer cell lines (inhibiting HDAC): A549. The conditions noted are these: Homo sapiens, A549, read-out: IC50, inhibiting HDAC in human cancer cell lines.
In experiment [3] the test system is MKN-45 (gastric carcinoma). Briefly: IC50 in human cancer cell lines (inhibiting HDAC): MKN-45. The settings on record: MKN-45, read-out: IC50, inhibiting HDAC in human cancer cell lines.
Protocol: (§1) More specifically, the IC50 values of test compounds were determined by carrying out a fluorimetric histone deacetylase assay following the manufacturer's instructions. For a pan-HDAC assay, HeLa nuclear extracts were used as a source of histone deacetylase (BioVision Inc.). Histone deacetylase isomer inhibition assays were conducted using purified recombinant histone deacetylase proteins of the various isomers (BPS Bioscience Inc.). Reactions were performed in 0.1 mol/L KCl, 20 mmol/L HEPES/NaOH at pH 7.9, 20% glycerol, 0.2 mmol/L DTA, 0.5 mmol/L DTT, and 0.5 mmol/L phenylmethylsulfonylfluoride. […] Reactions were carried out in triplicate for each test compound. Each point represented the mean±SD of replicates.
Experiment [4] relates to HDACs (p21, p27, histone, and α-tubulin acetylation) in the PC3 xenograft model. The experiment in a line: In vivo HDAC inhibitory assay, PC3 xenograft. The conditions noted are these: 25 mg/kg, oral, PC3 xenograft mice. On the procedure: Subcutaneous inoculation of 5×10^6 PC3 cells in specific pathogen-free male athymic mice (strain BALB/cAnN.Cg-Foxn1nu/CrlNarl) from the National Laboratory Animal Center, Taiwan, was applied. The mice were subsequently fed under specific pathogen-free conditions and provided with sterile water and food. […] Tumor samples were obtained and frozen in liquid nitrogen before storage in −80° C. Tumor proteins were extracted and subjected to the Western blotting analysis. β-Actin was used as an internal control.

The subject of experiment [5] is human glioblastoma (U87-MG-LucNeo cells) xenograft. Briefly: In vivo antitumor activity against human glioblastoma xenograft tumor: survival. The conditions noted are these: intracranial U87 xenograft, Compound 7 50-100 mg/kg p.o.; TMZ 50 mg/kg p.o. (In general: Xenograft models place foreign cells or tissue in a host animal.)
Description: Male athymic nude mice at 5-6 weeks old were obtained from BioLasco (Taiwan) and maintained in a specific-pathogen-free facility. All experimental procedures were approved by the Institute of Animal Care and Use Committee of Taipei Medical University. Each nude mouse was anesthetized with an i.p. injection of xylazine (Sigma) and zolazepam (Zoletil 50, Virbac), and then secured in a stereotaxic frame.
In a further experiment the test system is HSC-3 (oral carcinoma). Briefly: IC50 in human cancer cell lines (inhibiting HDAC): HSC-3. The settings on record: HSC-3, read-out: IC50, inhibiting HDAC in human cancer cell lines.
Another experiment relates to SCC15 (tongue carcinoma). The experiment in a line: IC50 against human cancer cell lines: SCC15. The settings on record: SCC-15, read-out: IC50 ± SD against human cancer cell lines.
Another experiment relates to KB-VIN10 (KB resistant). Briefly: IC50 against human cancer cell lines: KB-VIN10. The settings on record: Homo sapiens, KB-VIN10, read-out: IC50 ± SD against human cancer cell lines.
The test system of a further experiment is OECM-1 (oral carcinoma). Briefly: IC50 against human cancer cell lines: OECM-1. The conditions noted are these: OECM1, read-out: IC50 ± SD against human cancer cell lines.
The test system of experiment [6] is MDA-MB-231 (breast carcinoma). Briefly: IC50 against human cancer cell lines: MDA-MB-231. The conditions noted are these: MDA-MB-231, read-out: IC50 ± SD against human cancer cell lines.
Protocol: as §1
Experiment [7] concerns K2 (normal: keratinocyte). The experiment in a line: IC50 against cell lines: K2. The settings on record: Homo sapiens, read-out: IC50 ± SD against human cancer cell lines.
In experiment [8] the test system is DU-145 (prostate carcinoma). Briefly: IC50 against human cancer cell lines: DU-145. The conditions noted are these: DU-145, read-out: IC50 ± SD against human cancer cell lines.
Protocol: as §1
Experiment [9] relates to LNCaP-R1 (prostate carcinoma). The experiment in a line: IC50 against human cancer cell lines: LNCaP-R1. The settings on record: read-out: IC50 ± SD against human cancer cell lines.
Protocol: as §1

Each structure is given as a SMILES string.

Regarding `O=C(/C=C/c1cccc(S(=O)(=O)n2ccc3cccnc32)c1)NO` [Compound 7, (E)-3-(3-(1H-Pyrrolo[2,3-b]pyridin-1-ylsulfonyl)phenyl)-N-hydroxyacrylamide], in [1], the cytotoxicity at 30 µM is ~70%. The “induction of cell death (LDH)” value with C6 glioma cell line was “about 100%”. Moreover, the IC50 (commonly the concentration that inhibits the measured activity by half) turned out to be 1330 ± 190 nM in experiment [2], 2510 ± 810 nM in experiment [3] and 660 ± 120 nM with HSC-3 (oral carcinoma). In experiment [4], the “inhibiting HDACs in vivo (p21, p27, histone, and α-tubulin acetylation)” value is “effective”. Moreover, the survival entry in [5] is on record as “extended survival longer than TMZ”.

Consider `COc1ccc(S(=O)(=O)N2CCc3cc(/C=C/C(=O)NO)cnc32)cc1` [Compound 5b, (E)-N-hydroxy-3-(1-(4-methoxyphenylsulfonyl)-2,3-dihydro-1H-pyrrolo[2,3-b]pyridin-5-yl)acrylamide], for which the IC50 in the experiment on SCC15 (tongue carcinoma) stood at 176 ± 63.9 nM; in the experiment on KB-VIN10 (KB resistant), 85 nM; in the experiment on OECM-1 (oral carcinoma), 384 ± 72.1 nM; in experiment [6], 247 ± 9.3 nM; in [7] it was 447 ± 37.3 nM; in [8], 90 ± 30 nM. Besides, the IC50 in [9] was 150 ± 30 nM.

The record behind these values is patent US10246455B2, “Histone deacetylase inhibitors” (Taipei Medical University, priority 2014, dated 2019).
